The conditions of this data set: 10 mg/kg adriamycin, intravenous (tail vein) on Days 8, 10 and 12; compared with Vehicle; FIG. 1(A).

The source of these data is patent publication US20090317455A1, “REVERSE TARGETING LIPID VESICLE” (ASTELLAS PHARMA INC., priority 2006, published 2009).

Description: The presence of weight loss as a side effect of adriamycin encapsulated in the liposome was assessed. […] Each of the drugs was intravenously (tail vein) administered to each mouse group on Days 8, 10 and 12 following the sensitization day (Day 0) (total of three doses). […] The 10 mg/kg (weight) adriamycin is a dose that gives medicinal benefits as a cancer chemotherapeutic agent.
Meanwhile, weight loss as a side effect was also assessed.
Each of the drugs was intravenously (tail vein) administered to each mouse group on Days 8, 10 and 12 following the sensitization day (Day 0) (total of three doses).

`COc1cccc2c1C(=O)c1c(O)c3c(c(O)c1C2=O)C[C@@](O)(C(=O)CO)C[C@@H]3O[C@H]1C[C@H](N)[C@H](O)[C@H](C)O1` [adriamycin]: the “weight loss as a side effect” value is on record as “obvious weight loss”.
